For eight compounds, Herbicidal activity and pest or weed control results are on record in patent publication US10023590B2, “Substituted pyridine compounds having herbicidal activity” (BASF SE, priority 2014, dated 2018).

Common to all, as to assay type: in vivo
The test system of one data set is Zea mays. The experiment in a line: Greenhouse post-emergence herbicidal activity on crop ZEAMX (corn, maize). On the set-up: key: 0 = no damage/normal growth, 100 = no emergence or complete destruction. From the text: (§1) The culture containers used were plastic flowerpots containing loamy sand with approximately 3.0% of humus as the substrate. The seeds of the test plants were sown separately for each species.
(§2) For the post-emergence treatment, the test plants were first grown to a height of 3 to 15 cm, depending on the plant habit, and only then treated with the active ingredients which had been suspended or emulsified in water. For this purpose, the test plants were either sown directly and grown in the same containers, or they were first grown separately as seedlings and transplanted into the test containers a few days prior to treatment.
(§3) Depending on the species, the plants were kept at 10-25° C. or 20-35° C., respectively.
(§4) The test period extended over 2 to 4 weeks. During this time, the plants were tended, and their response to the individual treatments was evaluated.
(§5) Evaluation was carried out using a scale from 0 to 100. 100 means no emergence of the plants, or complete destruction of at least the aerial moieties, and 0 means no damage, or normal course of growth. A good herbicidal activity is given at values of at least 70 and a very good herbicidal activity is given at values of at least 85.

The subject of another data set is Amaranthus retroflexus. The experiment in a line: Greenhouse post-emergence herbicidal activity, AMARE. Conditions: AMARE; for pest or weed control at 250 g/ha: 0.25 kg/ha; for pest or weed control at 31 g/ha: 0.031 kg/ha.
Text: as §1, §2, §3, §4, §5

The subject of the next data set is Chenopodium album. The experiment in a line: Greenhouse post-emergence herbicidal activity, CHEAL. Conditions: for pest or weed control at 250 g/ha: 0.25 kg/ha.
Text: as §1, §2, §3, §4, §5

The test system of a further data set is Oryza sativa. The experiment in a line: Greenhouse post-emergence herbicidal activity on crop ORYSA (rice).
Text: as §1, §2, §3, §4, §5

For a further data set, the system named is Echinocloa crus-galli. The experiment in a line: Greenhouse post-emergence herbicidal activity, ECHCG. Conditions: Echinochloa crus-galli, ECHCG; for pest or weed control at 250 g/ha: 0.25 kg/ha.
Text: as §1, §2, §3, §4, §5

Where [1] appears, read: ZEAMX (corn, crop), 0.125 kg/ha, scale 0 to 100.
Where [2] appears, read: ORYSA (rice, crop), 0.125 kg/ha, scale 0 to 100.
Setting [3] is: ZEAMX (corn, crop), 0.031 kg/ha, scale 0 to 100.
[4] abbreviates: ZEAMX (corn, crop), 0.063 kg/ha, scale 0 to 100.
The mark [5] stands for this setting: ORYSA (rice, crop), 0.031 kg/ha, scale 0 to 100.
Setting [6] is: ORYSA (rice, crop), 0.063 kg/ha, scale 0 to 100.
[7] abbreviates: ZEAMX (corn, crop), 0.25 kg/ha, scale 0 to 100.
Where [8] appears, read: crop ZEAMX (corn, maize), application rate 0.031 kg/ha.
Where [9] appears, read: crop ZEAMX (corn, maize), application rate 0.063 kg/ha.
The mark [10] stands for this setting: crop ORYSA (rice), application rate 0.031 kg/ha.
[11] abbreviates: crop ORYSA (rice), application rate 0.063 kg/ha.
The mark [12] stands for this setting: crop ORYSA (rice), application rate 0.125 kg/ha.

Regarding `CS(=O)(=O)Nc1c(Cl)ccc(C2=C(O)c3ncccc3CS2(=O)=O)c1Cl` [I-1, N-[2,6-dichloro-3-(8-hydroxy-6,6-dioxo-5H-thiopyrano[4,3-b]pyridin-7-yl)phenyl]methanesulfonamide], the Herbicidal activity is given as 0 in the data set on Zea mays (setting [1]); 0 with Oryza sativa (setting [2]); 0 with Oryza sativa (ORYSA (rice, crop), 0.25 kg/ha, scale 0 to 100). Besides, the pest or weed control – broadly, how far the test organism was held down – at 125 g/ha in the data set with Amaranthus retroflexus (0.125 kg/ha, scale 0 to 100) was determined as 75%; with Chenopodium album (0.125 kg/ha, scale 0 to 100), 80%; with Echinocloa crus-galli (0.125 kg/ha, scale 0 to 100), 70%. Also, the pest or weed control at 250 g/ha with Amaranthus retroflexus (scale 0 to 100) was 80%; with Chenopodium album (scale 0 to 100) it was 95%; in the data set on Echinocloa crus-galli (scale 0 to 100), 80%.
Consider `CN(c1ccc(Cl)c(C2=C(O)c3ncccc3CS2(=O)=O)c1Cl)S(C)(=O)=O` [I-4, N-[2,4-dichloro-3-(8-hydroxy-6,6-dioxo-5H-thiopyrano[4,3-b]pyridin-7-yl)phenyl]-N-methyl-methanesulfonamide], for which the Herbicidal activity is on record as 0 with Zea mays (setting [3]); 20 in the data set with Zea mays (setting [4]); 55 in the data set with Zea mays (setting [1]); 25 in the data set with Oryza sativa (setting [5]); 35 in the data set on Oryza sativa (setting [6]); 50 with Oryza sativa (setting [2]). The pest or weed control at 31 g/ha in the data set with Amaranthus retroflexus (scale 0 to 100) was 90%; in the data set on Chenopodium album (0.031 kg/ha, scale 0 to 100), 85%; in the data set with Echinocloa crus-galli (0.031 kg/ha, scale 0 to 100), 98%. Further, the pest or weed control at 63 g/ha was 90% in the data set on Amaranthus retroflexus (0.063 kg/ha, scale 0 to 100); 95% in the data set with Chenopodium album (0.063 kg/ha, scale 0 to 100); 90% in the data set with Echinocloa crus-galli (0.063 kg/ha, scale 0 to 100). In addition, the pest or weed control at 125 g/ha was 98% in the data set with Amaranthus retroflexus (0.125 kg/ha, scale 0 to 100); 100% in the data set on Chenopodium album (0.125 kg/ha, scale 0 to 100); 98% in the data set on Echinocloa crus-galli (0.125 kg/ha, scale 0 to 100). Moreover, the pest or weed control at 250 g/ha with Amaranthus retroflexus (scale 0 to 100) stood at 98%; in the data set with Chenopodium album (scale 0 to 100), 100%; with Echinocloa crus-galli (scale 0 to 100), 100%.
As for `CN(c1cccc(C2=C(O)c3ncccc3CS2(=O)=O)c1Cl)S(C)(=O)=O` [I-15, N-[2-chloro-3-(8-hydroxy-6,6-dioxo-5H-thiopyrano[4,3-b]pyridin-7-yl)phenyl]-N-methyl-methanesulfonamide], the Herbicidal activity in the data set with Zea mays (setting [1]) was 35; in the data set on Oryza sativa (setting [5]), 0; with Oryza sativa (setting [6]), 0; with Oryza sativa (setting [2]) it was 20. Also, the pest or weed control at 31 g/ha came to 75% in the data set with Amaranthus retroflexus (scale 0 to 100); 90% in the data set on Chenopodium album (0.031 kg/ha, scale 0 to 100); 85% in the data set with Echinocloa crus-galli (0.031 kg/ha, scale 0 to 100). Further, the pest or weed control at 63 g/ha in the data set on Amaranthus retroflexus (0.063 kg/ha, scale 0 to 100) was 85%; with Chenopodium album (0.063 kg/ha, scale 0 to 100), 98%; in the data set with Echinocloa crus-galli (0.063 kg/ha, scale 0 to 100) it was 90%. Also, the pest or weed control at 125 g/ha worked out at 90% with Amaranthus retroflexus (0.125 kg/ha, scale 0 to 100); 98% in the data set on Chenopodium album (0.125 kg/ha, scale 0 to 100); 98% in the data set with Echinocloa crus-galli (0.125 kg/ha, scale 0 to 100).
Turning to `CCS(=O)(=O)N(C)c1c(Cl)ccc(C2=C(O)c3ncccc3CS2(=O)=O)c1Cl` [I-18, N-[2,6-dichloro-3-(8-hydroxy-6,6-dioxo-5H-thiopyrano[4,3-b]pyridin-7-yl)phenyl]-N-methyl-ethanesulfonamide], the Herbicidal activity in the data set on Zea mays (setting [3]) worked out at 0; in the data set with Zea mays (setting [4]) it was 25; with Zea mays (setting [1]) it was 25; in the data set with Zea mays (setting [7]), 35; with Oryza sativa (setting [5]), 30. Also, the pest or weed control at 31 g/ha was found to be 100% with Amaranthus retroflexus (scale 0 to 100); 100% in the data set on Chenopodium album (0.031 kg/ha, scale 0 to 100); 98% in the data set with Echinocloa crus-galli (0.031 kg/ha, scale 0 to 100). Further, the pest or weed control at 63 g/ha in the data set on Amaranthus retroflexus (0.063 kg/ha, scale 0 to 100) is 100%; in the data set on Chenopodium album (0.063 kg/ha, scale 0 to 100) it was 100%; in the data set on Echinocloa crus-galli (0.063 kg/ha, scale 0 to 100), 100%. Further, the pest or weed control at 125 g/ha with Amaranthus retroflexus (0.125 kg/ha, scale 0 to 100) was 100%; in the data set on Chenopodium album (0.125 kg/ha, scale 0 to 100), 100%; in the data set on Echinocloa crus-galli (0.125 kg/ha, scale 0 to 100) it was 100%. Besides, the pest or weed control at 250 g/ha in the data set on Amaranthus retroflexus (scale 0 to 100), in the data set on Chenopodium album (scale 0 to 100) and with Echinocloa crus-galli (scale 0 to 100) was 100% each time.
`CN(c1c(Cl)ccc(C2=C(O)c3ncccc3CS2(=O)=O)c1Cl)S(=O)(=O)CC1CC1` [I-20, 1-cyclopropyl-N-[2,6-dichloro-3-(8-hydroxy-6,6-dioxo-5H-thiopyrano[4,3-b]pyridin-7-yl)phenyl]-N-methyl-methanesulfonamide]: the Herbicidal activity in the data set on Zea mays (setting [3]), in the data set with Zea mays (setting [4]) and in the data set with Zea mays (setting [1]) was 0 throughout. Also, the pest or weed control at 31 g/ha is 90% in the data set with Amaranthus retroflexus (scale 0 to 100); 100% in the data set on Chenopodium album (0.031 kg/ha, scale 0 to 100); 100% in the data set on Echinocloa crus-galli (0.031 kg/ha, scale 0 to 100). The pest or weed control at 63 g/ha stood at 90% with Amaranthus retroflexus (0.063 kg/ha, scale 0 to 100); 100% in the data set with Chenopodium album (0.063 kg/ha, scale 0 to 100); 100% with Echinocloa crus-galli (0.063 kg/ha, scale 0 to 100). For the same compound, the pest or weed control at 125 g/ha with Amaranthus retroflexus (0.125 kg/ha, scale 0 to 100) came to 100%; in the data set with Chenopodium album (0.125 kg/ha, scale 0 to 100), 100%; in the data set with Echinocloa crus-galli (0.125 kg/ha, scale 0 to 100), 100%.
Consider `CS(=O)(=O)N(c1c(Cl)ccc(C2=C(O)c3ncccc3CS2(=O)=O)c1Cl)C1CC1` [I-24, N-cyclopropyl-N-[2,6-dichloro-3-(8-hydroxy-6,6-dioxo-5H-thiopyrano[4,3-b]pyridin-7-yl)phenyl]methanesulfonamide], for which the Herbicidal activity in the data set on Zea mays (setting [3]) was found to be 0; in the data set on Zea mays (setting [4]), 0; in the data set with Zea mays (setting [1]) it was 15; in the data set on Zea mays (setting [7]), 15; in the data set on Oryza sativa (setting [5]), 0; with Oryza sativa (setting [6]), 15. In the data set on Oryza sativa (setting [2]), this compound registered a Herbicidal activity of 20. In addition, the pest or weed control at 31 g/ha with Amaranthus retroflexus (scale 0 to 100) worked out at 70%; with Chenopodium album (0.031 kg/ha, scale 0 to 100) it was 80%; with Echinocloa crus-galli (0.031 kg/ha, scale 0 to 100) it was 80%. Further, the pest or weed control at 63 g/ha with Amaranthus retroflexus (0.063 kg/ha, scale 0 to 100) was 75%; in the data set on Chenopodium album (0.063 kg/ha, scale 0 to 100), 85%; in the data set on Echinocloa crus-galli (0.063 kg/ha, scale 0 to 100), 85%. Besides, the pest or weed control at 125 g/ha in the data set with Amaranthus retroflexus (0.125 kg/ha, scale 0 to 100) is 85%; in the data set with Chenopodium album (0.125 kg/ha, scale 0 to 100), 90%; in the data set on Echinocloa crus-galli (0.125 kg/ha, scale 0 to 100) it was 90%. Besides, the pest or weed control at 250 g/ha with Amaranthus retroflexus (scale 0 to 100) was determined as 90%; in the data set with Chenopodium album (scale 0 to 100), 98%; with Echinocloa crus-galli (scale 0 to 100), 95%.
Consider `CN(c1cccc(C2=C(O)c3ncccc3CS2(=O)=O)c1S(C)(=O)=O)S(C)(=O)=O` [I-33, N-[3-(8-hydroxy-6,6-dioxo-5H-thiopyrano[4,3-b]pyridin-7-yl)-2-methylsulfonyl-phenyl]-N-methyl-methanesulfonamide], for which the Herbicidal activity in the data set on Zea mays (setting [8]) came out at 0; with Zea mays (setting [9]) it was 0; in the data set with Zea mays (crop ZEAMX (corn, maize), application rate 0.125 kg/ha), 0; with Oryza sativa (setting [10]), 0; in the data set with Oryza sativa (setting [11]) it was 20; in the data set on Oryza sativa (setting [12]) it was 10. Also, the pest or weed control at 63 g/ha with Amaranthus retroflexus (application rate 0.063 kg/ha) is 85%; with Chenopodium album (application rate 0.063 kg/ha), 98%. Further, the pest or weed control at 125 g/ha with Amaranthus retroflexus (application rate 0.125 kg/ha) and with Chenopodium album (application rate 0.125 kg/ha) was 90% throughout. Also, the pest or weed control at 31 g/ha in the data set with Chenopodium album (application rate 0.031 kg/ha) was 85%.
As to `CN(c1c(Cl)ccc(C2=C(O)c3ncc(F)cc3CS2(=O)=O)c1Cl)S(C)(=O)=O` [I-37, N-[2,6-dichloro-3-(3-fluoro-8-hydroxy-6,6-dioxo-5H-thiopyrano[4,3-b]pyridin-7-yl)phenyl]-N-methyl-methanesulfonamide], the Herbicidal activity in the data set on Zea mays (setting [8]), in the data set with Zea mays (setting [9]), in the data set on Oryza sativa (setting [10]), in the data set with Oryza sativa (setting [11]) and in the data set with Oryza sativa (setting [12]) was 0 throughout. The pest or weed control at 31 g/ha in the data set with Chenopodium album (application rate 0.031 kg/ha) and with Echinocloa crus-galli (application rate 0.031 kg/ha) was 90% throughout. In addition, the pest or weed control at 63 g/ha with Chenopodium album (application rate 0.063 kg/ha) and in the data set on Echinocloa crus-galli (application rate 0.063 kg/ha) was 90% in each case. In addition, the pest or weed control at 125 g/ha stood at 90% in the data set with Chenopodium album (application rate 0.125 kg/ha) and 95% in the data set on Echinocloa crus-galli (application rate 0.125 kg/ha).
